{
  "source": "patent US10945989B2",
  "about": "“Perinatal treatment with a flavonoid agonist of the TrkB receptor for BDNF rescues neurogenesis and behavior in the Ts65Dn mouse model of DS” (ALMA MATER STUDIORUM—Universita' di Bologna, priority 2017, dated 2021)",
  "key": {"[1]": {"tested_on": "NPCs from the SGZ of Ts65Dn mice", "experiment": "Neuron maturation: cells exhibiting neuritic processes, SGZ NPCs", "assay_type": "cell-based, mouse", "conditions": "96 h, vs standard medium", "experimental": "(§1) Cells were isolated from the subventricular zone (SVZ) of the lateral ventricle and the subgranular zone (SGZ) of the hippocampal dentate gyrus (DG) of newborn (P1-P2) euploid and Ts65Dn mice. Briefly, brains were removed, the SVZ and SGZ regions were isolated and individually collected in ice-cold PIPES buffer pH 7.4. After centrifugation, tissue was digested for 10 min at 37° C. using Trypsin/EDTA 0.25% (Life Technologies) aided by gentle mechanical dissociation. Cell suspension from each individual mouse was plated onto 25 cm^2 cell-culture flask (Thermo Fisher Scientific) and cultured as floating neurospheres in medium containing basic fibroblast growth factor (bFGF, 10 ng/ml; Peprotech) and epidermal growth factor (EGF, 20 ng/ml; Peprotech) using an established protocol (Meneghini et al., 2014). […] Cell proliferation was quantified as relative luminescence units (RLU) values using Cell Titer-Glo viability assay reagent (Promega) on aVictor^3-V plate reader (PerkinElmer). […] In each experiment, five fields/well (corresponding to about 150-200 cells/well) were counted with a 60× objective by a Leica DMIRB inverted fluorescence microscope. Immunoreactive cells were counted and their percentage over total viable cells was calculated. […]"}, "[2]": {"tested_on": "NPCs from the SVZ of Ts65Dn mice", "experiment": "Neuron maturation: cells exhibiting neuritic processes, SVZ NPCs", "assay_type": "cell-based, mouse", "conditions": "96 h, vs standard medium", "experimental": "as §1"}, "[3]": {"tested_on": "dendritic spines of granule neurons", "experiment": "Golgi staining: dendritic spine density of granule cells", "assay_type": "in vivo, mouse", "conditions": "5.0 mg/kg P3-P15", "experimental": "Euploid and Ts65Dn mice received a daily subcutaneous injection (at 9-10 am) of 7,8-DHF (5.0 mg/kg in vehicle: PBS with 1% DMSO) or vehicle from postnatal day 3 (P3) to postnatal day 15. This timing was chosen because it corresponds to that previously used to test the effects of fluoxetine and other pharmacotherapies in the neonate Ts65Dn mouse (Bianchi et al., 2010b; Giacomini et al., 2015; Stagni et al., 2016). Mice that received 7,8-DHF will be called “treated mice” (treated euploid mice: n=25; treated Ts65Dn mice: n=15). Mice that received the vehicle will be called “untreated mice” (untreated euploid mice: n=35; untreated Ts65Dn mice: n=21). […] The brains were excised and cut along the midline. […]\nIn Golgi-stained sections from the DG of P15 mice, spines of granule cells were counted using a 100× oil immersion objective lens (1.4 NA). […] For each neuron, 2-3 segments were analyzed in the outer and inner half of the molecular layer, respectively. For each animal, spines were counted in at least 8 neurons. The length of each sampled dendritic segment was determined by tracing its profile and the number of spines was counted manually. The linear spine density was calculated by dividing the total number of spines by the length of the dendritic segment. Spine density was expressed as number of spines per 100 μm dendrite."}, "BDNF": {"tested_on": "BDNF", "experiment": "Western blot of hippocampal homogenates: BDNF", "assay_type": "in vivo, mouse", "experimental": "Euploid and Ts65Dn mice received a daily subcutaneous injection (at 9-10 am) of 7,8-DHF (5.0 mg/kg in vehicle: PBS with 1% DMSO) or vehicle from postnatal day 3 (P3) to postnatal day 15. This timing was chosen because it corresponds to that previously used to test the effects of fluoxetine and other pharmacotherapies in the neonate Ts65Dn mouse (Bianchi et al., 2010b; Giacomini et al., 2015; Stagni et al., 2016). Mice that received 7,8-DHF will be called “treated mice” (treated euploid mice: n=25; treated Ts65Dn mice: n=15). Mice that received the vehicle will be called “untreated mice” (untreated euploid mice: n=35; untreated Ts65Dn mice: n=21). […] The brains were excised and cut along the midline. The left hemisphere of a group of mice was fixed by immersion in PFA 4% and frozen, and the left hemisphere of another group of mice was used for Golgi staining. […]\nIn homogenates of the hippocampal formation of P15 mice, total proteins were obtained as previously described (Trazzi et al., 2011) and the levels of the following proteins were evaluated: BDNF, TrkB full length (TrkB-FL), phosphorylated TrkB (p-TrkB), the truncated form 1 of the TrkB receptor (TrkB-T1), phosphorylated ERK1 (p-ERK1), phosphorylated ERK2 (p-ERK2), ERK1, ERK2, synaptophysin (SYN), GAPDH and α-Tubulin using the antibodies reported in Table 1. […]"}, "Ts65Dn and euploid mice": {"tested_on": "Ts65Dn and euploid mice", "experiment": "Morris Water Maze, probe test", "assay_type": "in vivo, mouse"}, "[4]": {"conditions": "Ts65Dn mice, became similar to untreated euploid mice"}},
  "data": [
    {"smiles": "O=c1cc(-c2ccccc2)oc2c(O)c(O)ccc12", "note": "[7,8-DHF, 7,8-dihydroxyflavone]", "values": [
      {"measurement": "concentrations that increased the percentage of cells exhibiting neuritic processes", "setting": "[1]", "value": "higher than 1.1 μM"},
      {"measurement": "doses that increased the percentage of cells exhibiting neuritic processes", "setting": "[2]", "value": "higher than 0.3 μM"},
      {"measurement": "spine density of granule neurons", "setting": "[3]; P15 Ts65Dn mice", "value": "became similar to that of euploid mice"},
      {"measurement": "spine density of granule neurons", "setting": "[3]; P15 euploid mice", "value": "no effect on spine density"},
      {"measurement": "BDNF levels in the hippocampus", "setting": "BDNF; P15 Ts65Dn mice, statistically significant", "value": "reduction in BDNF levels"},
      {"measurement": "BDNF levels in the hippocampus", "setting": "BDNF; P15 euploid mice, not statistically significant", "value": "reduction in BDNF levels"},
      {"measurement": "percentage of time spent at the periphery (probe test)", "setting": "Ts65Dn and euploid mice; Ts65Dn mice", "value": "reduced in comparison with their untreated counterparts"},
      {"measurement": "frequency of entrances in the former quadrant", "setting": "Ts65Dn and euploid mice; [4]", "value": "notable increase in the frequency"},
      {"measurement": "latency to enter the former platform zone", "setting": "Ts65Dn and euploid mice; [4]", "value": "notable reduction in their latency"},
      {"measurement": "proximity to the former platform position", "setting": "Ts65Dn and euploid mice; [4]", "value": "swam closer to the former platform zone"},
      {"measurement": "percentage of time spent in quadrants", "setting": "Ts65Dn and euploid mice; Ts65Dn mice, vs SE quadrant only marginally significant", "value": "significantly more time in the former platform quadrant in comparison with the NE quadrant"},
      {"measurement": "frequency of entrances in the former quadrant", "setting": "Ts65Dn and euploid mice; euploid mice", "value": "large increase in the frequency of entrances"},
      {"measurement": "percentage of time spent at the periphery (probe test)", "setting": "Ts65Dn and euploid mice; euploid mice, treated vs. untreated", "value": "reduction in the percentage of time at the periphery"},
      {"measurement": "percentage of time spent in quadrants", "setting": "Ts65Dn and euploid mice; euploid mice, vs NE and SE quadrants", "value": "significantly more time in the former platform quadrant"}
    ]}
  ]
}
